Results reported in patent publication US20070275953A1 (priority 2003, published 2007).
Read-outs that look alike come from different tables or passages of the source.

Assays:
[1] = target: T1, HIV-1 reverse transcriptase (Human immunodeficiency virus type 1 group M subtype B, UniProt P04585); test: HIV-1 in vitro reverse transcriptase activity (fixed-time RNA dependent DNA polymerase assay); format: biochemical; settings: residual RT activity, compound at 10 μM; RT activity without compound set at 100%
T1 construct: fixed-time assay for HIV-1 reverse transcriptase RNA dependent DNA polymerase activity; RT was purchased from Calbiochem; purchased Calbiochem CAL382129-500
Method: For the in vitro inhibition studies of the HIV-1 reverse transcriptase activity, stock solutions of the compounds of the present invention were prepared in dimethyl sulfoxide at a final concentration of 10 mM and kept at room temperature. Nevirapine was purchased from Boehringer Ingelheim. Efavirenz was received from the NIH AIDS Research and Reference Reagent Program.
In vitro inhibition studies used a fixed-time assay for HIV-1 reverse transcriptase RNA dependent DNA polymerase activity. RT was purchased from Calbiochem (ref CAL382129-500). One unit of RT corresponds to the amount of enzyme which incorporates one nanomole of [^3H]TTP in 10 minutes at 37° C.
Assays were performed in a final volume of 50 μl. […] Reaction mixtures were incubated at 37° C. for 10 min. The incorporation rate was determined by a standard trichloroacetic acid precipitation procedure (adapted from Current protocols in molecular biology. Eds Wiley, MGH Harvard medical school) and liquid scintillation counting using a Wallac scintillation counter.
The in vitro activity of the compounds, at a final concentration of 10 μM, on the reverse transcriptase (RT) activity of HIV-1 is derivable from the relative (%) reduction in RT activity. Hereby, the RT activity in the absence of any of the compounds is set at 100%.

[2] = target: T1, HIV-1 reverse transcriptase; test: RT activity after separation of unbound compound on micro-spin desalting column; format: biochemical; settings: after preincubation with RT
Method: After the preincubation, the unbound Z122 and the RT were separated using a micro-spin desalting column.

[3] = system: HIV-1 with WT (wild type) RT in PBMC; test: Anti-HIV assay on PBMC, WT RT (p24); format: cell-based
Method: (§1) Wurzburg Jurkat T cells (subclone JR) were transfected with 10 μg of the circularly permuted infectious molecular clone HIVNL4-3 (Adachi et al., 1986. J. Virol, 59 (2), p 284-291). Two days later, co-cultivation with SupT1 cells (a human T-cell lymphoma cell line) was initiated to facilitate rapid production of progeny virions. Production of virus was measured by using the Innotest HIV Antigen mAb p24 kit (Innogenetics). At the peak of production cultures were harvested and filtered. The virus stocks were stored at −80° C. until used.
Anti-HIV activity of the compounds was tested on Peripheral Blood Mononuclear Cells (PBMCs). These cells were separated from the blood of healthy donor using established procedures. PBMCs were cultured in RPMI medium supplemented with 10% fetal bovine serum (FBS), 1% Penicillin/Streptomycin and 20 U/ml of Interleukin-2.
PBMCs isolated from the blood of healthy donor contain CD4^+ T-lymphocytes which are one of the main targets of HIV in infected individuals.
Briefly, in the anti-HIV assay PBMCs, activated with phytohemagglutinin, were infected with HIV-1. 100 μl of infected PBMCs were seeded in 96-well plate at a concentration of 1 10^5 cells/ml, and 100 μl of the different drugs dilutions were added to the cells. After 4 days of incubation at 37° C., 5% CO2, cells cultures supernatants were collected. The amount of the viral capsid protein p24 in the supernatants was measured using the Innotest HIV Antigen mAb P24 kit (Innogenetics).

[4] = Cytotoxicity (CC50), MTT assay on P4 cells; format: cell-based; settings: human
Method: (§2) For the antiviral and the cytotoxicity assays, the drugs were diluted in complete DMEM medium. In these experiments, drugs were diluted in triplicate wells in a 96-well plate in six, 5 fold serial dilutions.
(§3) The 50% cytotoxic concentration (CCso) was determined using a protocol adapted from Pauwels et al. (1988. J. Virol. Methods 20(4):309-21). Briefly, flat bottom 96-well plates were filled with 50 μl of complete medium containing 5.10^3 P4 cells. 2 hours later 50 μl of drug solution were added to the cells. Drugs (dissolved in DMEM, see above) were diluted in six, 5-fold serial dilutions from stock solutions in triplicate wells of a 96-well plate. Cells and compounds were incubated at 37° C. in growth medium for 3 days. Cell viability was determined by MTT assays using the Roche Cell Proliferation KIT. The absorbance (λ=570 nm) was measured on a Benchmark™ Microplate Reader (Biorad) and compared with 12 cell control replicates (no drug added). Each assay was performed at least three times for a total of at least nine replicate wells. This method detects both cytostatic and cytolytic effects of drugs.

[5] = system: HIV-1 with WT (wild type) RT in MT4 cells; test: Anti-HIV assay on MT4 cell line, WT RT; format: cell-based
Method: as §1
Anti-HIV activity of the compounds was tested on MT-4 cell line. The MT-4 cell line (Larder et al. 1989. Sciences, Vol. 243 p 1731) was received from the NIH AIDS Research and Reference Reagent Program. These cells were cultured in RPMI medium supplemented with 10% fetal bovine serum (FBS), and 1% Penicillin/Streptomycin. The cultures were split regularly to keep cells densities between 0.3 to 1.2 10^6 cells/ml.
The MT-4 cells rapidly die upon infection by HIV. In this system there is an inverse correlation between cells survival and the amount of viral replication.
Briefly, in the anti-HIV assay exponentially growing MT-4 cells were infected with HIV-1. 100 μl of infected MT-4 cells were seeded in 96-well plate at a concentration of 0.4 10^5 cells/ml, and 100 μl of the different drugs dilutions were added to the cells. After 4 days of incubation at 37° C., 5% CO2, cells survival was measured using MTS (3-(4-5-dimethylthiazol-2-yl)-5-(−(3-carboxymethoxyphenyl)-2-(4-sulfophenyl)-2H-tetrazolium) assays. This compound is reduced by viable cells in a colored soluble formazan salt.
The absorbance was measured on a Benchmark™ Microplate Reader (Biorad) (λ=490 nm) and compared with 12 cell control replicates (nor virus nor drug added) and 12 virus control wells (no drug added). Each assay was performed a minimum of three times. The 50% effective concentration (EC50) was calculated from each dose response curve using the CurveExpert 1.3 software.

[6] = target: T1, HIV-1 reverse transcriptase; test: RT inhibition as a function of preincubation time with the RT; format: biochemical
Description: Z122 seems to be an irreversible inhibitor of the reverse transcriptase.

[7] = system: HIV-1 with WT (wild type) RT in P4 cells; test: Anti-HIV assay on P4 cell line, WT RT; format: cell-based; settings: P4 cell line, WT RT; for EC50: read-out: EC50 WT
Method: as §2
Two days later, co-cultivation with SupT1 cells (a human T-cell lymphoma cell line) was initiated to facilitate rapid production of progeny virions. Production of virus was measured by using the Innotest HIV Antigen mAb p24 kit (Innogenetics). At the peak of production cultures were harvested and filtered. The virus stocks were stored at −80° C. until used.
Anti-HIV activity and cytotoxicity of the compounds were tested on a P4 cell line. […] The P4 cells were cultured in complete DMEM medium supplemented with 10% fetal bovine serum (FBS), 0.5% of Penicillin/Streptomycin and G418 at 0.5 mg/ml. Exponentially growing cells were trypsinized, centrifuged and split twice weekly at 5.10^4 cells/ml.
The P4 cells are HIV-infectible Hela-CD4 cells that carry the bacterial lacZ gene under the control of the HIV-1 long terminal repeat (LTR). In this cell line, transcription of the LacZ gene is driven by the HIV-1 LTR. […] In other words, in this system, the expression level of the β-galactosidase gene is proportional to the viral replication.
Briefly, in the anti-HIV assay 100 Ål of P4 cells were plated in 96-well plate at a concentration of 0.4 10^5 cells/ml and incubated at 37° C., 5% CO2. After 48 h, the medium was removed and 100 Ål of the different drugs dilutions were added to the cells. Four hours after the addition of the drugs all cells were infected with equal amount of cell-free virus, corresponding to 100 ng of HIV p24 antigen. After 48 h of incubation at 37° C., 5% CO2, β-galactosidase activity was measured using chlorophenol red-β-D-galactopyranoside assays.
Each assay was performed a minimum of three times. The 50% effective concentration (Ec50) was calculated from each dose response curve using the CurveExpert 1.3 software.

P4 cells = test: Cytotoxicity (CC50), MTT assay on P4 cells; format: cell-based; settings: 3 days
Method: as §2, §3

Row | SMILES | Relative (%) RT activity in vitro (compound added at 10 μM) [1] | change in RT activity after separation of unbound compound (micro-spin desalting column) [2] | EC50 ([3]; Human immunodeficiency virus 1) | CC50 at 3 days [4] | EC50 ([5]; Human immunodeficiency virus 1) | dependence of RT inhibition on time of (pre)incubation with the RT [6] | EC50 ([7]; Human immunodeficiency virus 1) | SI (selectivity index = CC50/EC50) [7] | melting point | EC50 [3] | CC50 (P4 cells) | EC50 [5] | EC50 [7]
1 | CCc1c(C)[nH]c(=O)c(CSCCO)c1OC1CC(C)CC(C)C1 (stereo not shown) [Z121, 5-ethyl-6-methyl-4-[(3,5-dimethylcyclohexyl)oxy]-3-{[(2-hydroxyethyl)sulfanyl]methyl}pyridine-2(1H)-one] | 1.4% | significant increase in the RT activity | < 1 nM | 27000 nM | 14 nM | independent of the preincubation time | < 1 nM | >27000 | 133 to 134 °C | – | – | – | –
2 | CCc1c(C)[nH]c(=O)c(CSCCOC(=O)CCl)c1OC1CC(C)CC(C)C1 (stereo not shown) [Z122] | 39.1% | did not observe any increase in the RT activity | – | – | – | increases with respect to the time of incubation | – | – | – | < 1 nM | 27500 nM | < 1 nM | 1 nM
